# Measurements as given in PMC12392461, “Beyond Estrogenicity: A Comparative Assessment of Bisphenol A and Its Alternatives in In Vitro Assays Questions Safety of Replacements” (Environmental Science & Technology, 2025).
# Entries after “also recorded” stand apart in the source; their conditions may differ. Like-named read-outs stand apart in the source and are kept apart here.
# How the values were obtained:
# PPARγ = system: PPARγ; parameters: method as in Crosthwait et al. 2025; Sun et al. 2025; settings: ref Crosthwait et al. 2025; Sun et al. 2025; cited from earlier work
# Tox21 assays [1] = settings: cited from earlier work
# [2] = cited from earlier work; for predicted or literature experimental log Kow: ref Hansch, 1995
# neuronal stem cells = settings: ref Liang et al.; cited from earlier work
# [3] = Abiotic CYP (aCYP) oxidation, remaining parent compound (Cparent-Ratio); settings: for Cparent-Ratio Rep.1 %: Table S9, replicate 1; for Cparent-Ratio Rep.2 %: Table S9, replicate 2
# Description: (§1) The mixtures were adjusted to a final volume of 100 μL with acetonitrile (ACN). The reaction mix was incubated for 15 min at 30 °C and 1000 rpm on a Bioshake iQ orbital shaker from QInstruments (Jena, Germany). Additionally, a mixture without test compounds was prepared as a control. Subsequently, 10 μL of the reaction mixture was transferred into a conical dosing vial and evaporated under a nitrogen flow.
# (§2) For chemical analysis, 10 μL of the reaction mixture was concentrated under vacuum (CentriVap, Labconco, Kansas City, MO, USA), diluted to 1 mg/L in ACN or ethyl acetate. The chemical analysis of the reaction mixtures was performed using liquid chromatography (LC) and gas chromatography (GC) coupled with various detection techniques, preferably Multiple Reaction Monitoring (MRM). Data acquisition and processing were carried out using the software MassHunter. Quantification was based on external calibrations.
# (§3) The Cparent-Ratio quantifies the extent of oxidation of the parent compound after the abiotic CYP reaction. It was calculated as the ratio of the parent compound concentration after oxidation (C parent, after oxidation) to its concentration before oxidation (C parent, before oxidation) as shown in eq . […] 8 Cparent‐Ratio=Cparent,after oxidation/Cparent,before oxidation
# Tox21 assays [4] = assay: Re-evaluated Tox21 data (Adamovsky et al.), REPBPA and SRbaseline; settings: for SRbaseline: Specificity Ratio;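 on all read-outs here: published Tox21 results reanalysed with a revised model predicting baseline toxicity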
# Description: We also reanalyzed the Tox21 data of Adamovsky et al. with the updated baseline toxicity prediction model (Table S2).
# ERα [5] = assay: Literature ERα reporter gene assays (comparison); type: cell-based; settings: for EC10, approx.: in M (unit assumed)
# Description: S5.4: Comparison with literature data for ERα reporter gene assays
# To improve data comparability with our own results we converted reported EC₅₀ to EC₁₀ by dividing by 9, which is the ratio for log-logistic concentration-response curves with a hillslope of 1 (Figure S9a). Additionally, REPBPA values were calculated to enable a more consistent evaluation. Methodological differences between studies must be considered, as Reiniger et al.24 used the YES assay, while Goksøyr et al.25 applied ERα from fish (Figure S9b).
# Cyan symbols highlight the ER-UAS-bla GripTite (this study and Tox21GenBLA).
# (1 picture or pasted object on this page, not shown here)
# ERα [6] = settings: cited from earlier work
# [7] = Stability in PBS (pH 7.4, 37 °C, 48 h)
# Description: We tested the stability of all BPA alternatives and BPA in 0.1mM PBS (pH 7.4) for 48h at 37° C except for TMCD prior to the bioassay experiments. The experiment was performed as follows: 500 µL of a 2 mg/L solution of the chemical in PBS was aliquoted into 3 HPLC vials (n=3) and incubated for 48 h at 37 °C. The 2 mg/L solution was prepared by diluting the respective 10 g/L stock solution in a 10 mL glass crimp vial with an aluminum cap. For HPLC analysis, 500 µL acetonitrile was added prior to injection.
# We have not tested stability of TMCD in aqueous media because we lacked a suitable […]
# Figure S2: Detection of Bisphenol alternatives after 48 h incubation in 0.1mM PBS pH 7.4. Each data point represents the mean percentage with error bars indicating standard error of mean (SEM) of n=3 replicates.
# S2: Cell culture and bioassays
# S2.1: Cell Culturing Conditions
# All suppliers and sources are given in detail in SI-Excel S3. The bioassay media for the different assays were prepared as follows: Assay medium for ER alpha-UAS-bla GripTite (ERα) and PPAR gamma-UAS-bla 293H (PPARγ) was prepared with 98% Opti-MEM, supplemented with 2% charcoal-stripped FBS, and 100 U/mL penicillin-streptomycin. MitoOxTox and AhR assay medium was comprised of 90% DMEM with GlutaMAX, supplemented with 10% FBS, and 100 U/mL penicillin-streptomycin. Neurotoxicity assay medium consisted of the neurobasal […]
# [8] = 15 min
# Description: as §1, §2, §3
# MCF-7 cells = system: MCF-7 cells; parameters: method as in Singh et al. 2024; settings: ref Singh et al. 2024; cited from earlier work
# [9] = parameters: method as in Soto et al.; settings: ref Soto et al.; cited from earlier work
# [10] = TOX21_PPARg_BLA_antagonist_ratio, re-evaluated Tox21 data, ref Adamovsky et al 2024
# [11] = Tox21BLA, ref Adamovsky et al. 2024
# [12] = Tox21Luc, ref Adamovsky et al. 2024
# [13] = Table S9, loss of parent after aCYP oxidation
# [14] = Table S9, mean of two replicate experiments
# [15] = Table S9, replicate 1, as fraction
# [16] = Table S9, replicate 2, as fraction
# [17] = Table S11, measured simultaneously with bioassay
# [18] = TOX21_AR_LUC_MDAKB2_Antagonist_0,5nM_R1881, Relative Effect Potency
# [19] = TOX21_AR_LUC_MDAKB2_Antagonist_0,5nM_R1881
# [20] = TOX21_PPARg_BLA_antagonist_ratio
# [21] = Atlantic cod estrogen receptor, approximated from literature EC50, ref Goksøyr et al 2024
# [22] = Atlantic cod estrogen receptor, ref Goksøyr et al 2024
# [23] = approximated from literature EC50, ref Pelch et al 2019
# [24] = approximated from literature EC50, ref Reiniger et Oehlmann 2024
# [25] = approximated from literature values, ref Kojima et al 2019
# [26] = relative estrogenic potency vs BPA, ref Kojima et al 2019
# [27] = relative estrogenic potency vs BPA, ref Pelch et al 2019
# [28] = relative estrogenic potency vs BPA, ref Reiniger et Oehlmann 2024
# [29] = estrogen receptor from Atlantic cod (Gadus morhua), ref Goksøyr et al 2024
structure (smiles),measurement,setting,value
"CC(C)(c1ccc(O)cc1)c1ccc(O)cc1 [BPA, 4,4'-(Propane-2,2-diyl)diphenol, reference compound]",PPARγ transactivation reported in the literature,PPARγ,No agonism was detected
same,EC10,"Tox21 assays [1]; ATG_NRF2_ARE_CIS_up, re-evaluated Tox21 data, ref Adamovsky et al 2024",7.56e-06 M
same,EC10,"Tox21 assays [1]; TOX21_AR_LUC_MDAKB2_Antagonist_0,5nM_R1881, re-evaluated Tox21 data, ref Adamovsky et al 2024",2.42e-06 M
same,EC10,"Tox21 assays [1]; TOX21_CAR_Agonist, re-evaluated Tox21 data, ref Adamovsky et al 2024",1.37e-06 M
same,EC10,"Tox21 assays [1]; TOX21_CAR_Antagonist, re-evaluated Tox21 data, ref Adamovsky et al 2024",5.45e-07 M
same,EC10,Tox21 assays [1]; [10],7.65e-06 M
same,EC10,Tox21 assays [1]; [11],5.92E-07
same,EC10,Tox21 assays [1]; [12],5.63E-08
same,log (KBSAw /(Lw/Lprotein)) (neutral species),"[2]; exp. + log(1.36 kg/L), ref Endo and Goss 2011",3.57
same,predicted or literature experimental log Kow,[2],3.32
same,log D lipw,"[2]; pH 7.4, ref Kwon et al. 2006",3.65
same,log (DBSAw /(Lw/Lprotein) (pH7.4)),[2]; ref Endo and Goss 2011,3.01
same,log (KBSAw /(Lw/kgprotein)) (neutral species),[2]; ref Endo and Goss 2011,3.44
same,log (Dlipw/(Lwater/kglipid) or (Lwater/Llipid)) (pH 7.4),[2]; ref Kwon et al. 2006,3.65
same,concentration with significant reduction in average neurite length,neuronal stem cells,1 nM
same,reduction of C parent after aCYP oxidation,"[3]; 15 min, 30 °C",15%
same,% Loss,[3]; [13],15%
same,Cparent-Ratio Mean,[3]; [14],0.85
same,Cparent-Ratio Rep.1 %,[3],86.04%
same,Cparent-Ratio Rep.1,[3]; [15],0.86
same,Cparent-Ratio Rep.2 %,[3],84.76%
same,Cparent-Ratio Rep.2,[3]; [16],0.85
same,% Loss,[3]; Table S11,11%
same,Cparent-Ratio Mean,[3]; [17],0.89
same,Cparent-Ratio Rep.1,[3]; [17],0.90
same,Cparent-Ratio Rep.2,[3]; [17],0.88
same,REPBPA,"Tox21 assays [4]; ATG_NRF2_ARE_CIS_up, Relative Effect Potency",1.00
same,SRbaseline,Tox21 assays [4]; ATG_NRF2_ARE_CIS_up,10.51
same,REPBPA,Tox21 assays [4]; [18],1.00
same,SRbaseline,Tox21 assays [4]; [19],32.80
same,REPBPA,"Tox21 assays [4]; TOX21_CAR_Agonist, Relative Effect Potency",1.00
same,SRbaseline,Tox21 assays [4]; TOX21_CAR_Agonist,57.94
same,REPBPA,"Tox21 assays [4]; TOX21_CAR_Antagonist, Relative Effect Potency",1.00
same,SRbaseline,Tox21 assays [4]; TOX21_CAR_Antagonist,145.9
same,SRbaseline,Tox21 assays [4]; [20],10.39
same,REPBPA,Tox21 assays [4]; [11],1.00E+00
same,REPBPA,Tox21 assays [4]; [12],1.00E+00
same,"EC10, approx.",ERα [5]; [21],~2.11E-07
same,REPBPA,ERα [5]; [22],1.00E+00
same,"EC10, approx.",ERα [5]; [23],~1.33E-07
same,"EC10, approx.",ERα [5]; [24],~2.51E-07
same,"EC10, approx.",ERα [5]; [25],~3.65E-08
same,REPBPA,ERα [5]; [26],1.00E+00
same,REPBPA,ERα [5]; [27],1.00E+00
same,REPBPA,ERα [5]; [28],1.00E+00
same,EC50,ERα [6]; [29],1.9 µM
same,EC50,ERα [6]; ref Kojima et al 2019,0.33 µM
same,EC50,ERα [6]; ref Pelch et al 2019,1.2 µM
same,Efficacy %,ERα [6]; ref Pelch et al 2019,110.30%
same,EC50,ERα [6]; ref Reiniger et Oehlmann 2024,2.26 µM
same,Efficacy %,ERα [6]; ref Reiniger et Oehlmann 2024,9.42E+01%
"CC(C)(c1ccc(OCC2CO2)cc1)c1ccc(OCC2CO2)cc1 (stereo not shown) [BADGE, Bisphenol A diglycidyl ether]",stability in phosphate-buffered saline,[7],unstable in aqueous solution; also recorded: lower parent concentration and potential contributions from hydrolysis products
same,% Loss,[8],-5%
same,Cparent-Ratio Mean,[8],1.05
same,Cparent-Ratio Rep.1,[8],1.07
same,Cparent-Ratio Rep.1 %,[8],107.02%
same,Cparent-Ratio Rep.2,[8],1.03
same,Cparent-Ratio Rep.2 %,[8],103.48%
"O=S(=O)(c1ccc(O)cc1)c1ccc(O)cc1 [BPS, 4,4'-Sulfonyldiphenol]",concentration with significant reduction in average neurite length,neuronal stem cells,1 nM
same,SRbaseline,Tox21 assays [4]; ATG_PPARg_TRANS_up,2973
same,REPBPA,"Tox21 assays [4]; ATG_chAR_XSP2_up, Relative Effect Potency",1.00
same,SRbaseline,Tox21 assays [4]; ATG_chAR_XSP2_up,645.8
same,SRbaseline,Tox21 assays [4]; ATG_hPPARg_XSP2_up,3669
same,REPBPA,Tox21 assays [4]; [18],0.0653
same,SRbaseline,Tox21 assays [4]; [19],127.8
same,REPBPA,Tox21 assays [4]; [11],1.59E-01
same,REPBPA,Tox21 assays [4]; [12],1.68E-02
same,"EC10, approx.",ERα [5]; [21],~9.26E-06
same,REPBPA,ERα [5]; [22],2.28E-02
same,"EC10, approx.",ERα [5]; [23],~1.44E-07
same,"EC10, approx.",ERα [5]; [24],~7.13E-09
same,"EC10, approx.",ERα [5]; [25],~8.50E-07
same,REPBPA,ERα [5]; [26],4.29E-02
same,REPBPA,ERα [5]; [27],9.23E-01
same,REPBPA,ERα [5]; [28],3.52E+01
same,EC50,ERα [6]; [29],83.3 µM
same,EC50,ERα [6]; ref Kojima et al 2019,5.4 µM
same,EC50,ERα [6]; ref Pelch et al 2019,1.3 µM
same,Efficacy %,ERα [6]; ref Pelch et al 2019,61.60%
same,Efficacy %,ERα [6]; ref Reiniger et Oehlmann 2024,7.90E+00%
same,"REPBPA,ERα reported in the literature","ERα [6]; ref Text S5.4, Tables S2 and S7",0.02–1
same,% Loss,[8],-2%
"Cc1cc(Cc2cc(C)c(O)c(C)c2)cc(C)c1O [TMBPF, Bis(3,5-dimethyl-4-hydroxyphenyl)methane]",% Loss,[3]; [13],31%
same,Cparent-Ratio Mean,[3]; [14],0.69
same,Cparent-Ratio Rep.1 %,[3],58.94%
same,Cparent-Ratio Rep.1,[3]; [15],0.59
same,Cparent-Ratio Rep.2 %,[3],79.26%
same,Cparent-Ratio Rep.2,[3]; [16],0.79
same,% Loss,[3]; Table S11,56%
same,Cparent-Ratio Mean,[3]; [17],0.44
same,Cparent-Ratio Rep.1,[3]; [17],0.29
same,Cparent-Ratio Rep.2,[3]; [17],0.59
same,estrogenicity in MCF-7 cells,MCF-7 cells,inactive in estrogenicity assays using MCF-7 cells
same,estrogenicity in vivo,[9],nonestrogenic in vivo
"Oc1ccc(Cc2ccc(O)cc2)cc1 [BPF, Bis(4-hydroxyphenyl)methane]",EC10,"Tox21 assays [1]; ATG_PPARg_TRANS_up, re-evaluated Tox21 data, ref Adamovsky et al 2024",3.95e-06 M
same,EC10,Tox21 assays [1]; [10],9.55e-06 M
same,EC10,Tox21 assays [1]; [12],8.91E-08
same,predicted or literature experimental log Kow,[2],2.91
same,concentration with significant reduction in average neurite length,neuronal stem cells,1 nM
same,REPBPA,"Tox21 assays [4]; ATG_PPARg_TRANS_up, Relative Effect Potency",0.40
same,SRbaseline,Tox21 assays [4]; ATG_PPARg_TRANS_up,41.61
same,SRbaseline,Tox21 assays [4]; [20],17.20
same,REPBPA,Tox21 assays [4]; [12],4.84E-01
same,"EC10, approx.",ERα [5]; [21],~4.22E-07
same,REPBPA,ERα [5]; [22],5.00E-01
same,"EC10, approx.",ERα [5]; [23],~1.78E-07
same,"EC10, approx.",ERα [5]; [24],~2.82E-07
same,"EC10, approx.",ERα [5]; [25],~5.50E-08
same,REPBPA,ERα [5]; [26],6.64E-01
same,REPBPA,ERα [5]; [27],7.50E-01
same,REPBPA,ERα [5]; [28],8.90E-01
same,EC50,ERα [6]; [29],3.8 µM
same,EC50,ERα [6]; ref Kojima et al 2019,0.32 µM
same,EC50,ERα [6]; ref Pelch et al 2019,1.6 µM
same,Efficacy %,ERα [6]; ref Pelch et al 2019,63.10%
same,EC50,ERα [6]; ref Reiniger et Oehlmann 2024,2.54 µM
same,Efficacy %,ERα [6]; ref Reiniger et Oehlmann 2024,1.05E+02%
same,reduction of C parent after aCYP oxidation,[8],48%
